Each structure is given as a SMILES string.

Test [1] concerns the target GCN2 (Homo sapiens, UniProt Q9P2K8). The test can be described thus: GCN2 enzyme assay (TR-FRET Lanthascreen, GFP-eIF2alpha substrate). Conditions: class symbols. The class given is biochemical. Here is the method:
APCI-MS (atmospheric pressure chemical ionisation-mass spectrometry) (M+H)^+. • Mass spectrometry (MS): EI (electron impact ionisation) M^+ • FAB (fast atom bombardment) (M+H)^+ • ESI (electrospray ionisation) (M+H)^+ • m.p.=melting point • LCMS Method: • Column: ZORBAX SB-C8 30*4.6 mm, 3.5 um • Mobile Phase A: Water+0.03% TFA • Mobile Phase B: ACN+0.05% TFA • Gradient: 5-95% B in 2.5 minutes • Flow: 2.0 mL/min • Wavelength: UV1:220 nm, UV2:254 nm • Mass Scan: 100-900 Da GCN2: Assay Principle & Conditions
This assay can quantificate the activity of the serin kinase GCN2 (general control non-derepressible-2).
This kinase is involved in the stress metabolism of cells. It is activated upon starvation (amino acid depletion). Its natural substrate is eIF2a (eukaryotic initiation factor 2 alpha subunit), a translation factor, which gets activated (phosphorylated) by GCN2 in case of an amino acid bottleneck in the cells. This in turn leads to a halt of the protein synthesis. Inhibition of GCN2 results in stopping this mechanism: The cell can not stop protein production upon “starvation” stress.
The assay is run in two steps: the enzymatic reaction and the detection step. In the first step GCN2 is incubated with 10 μM ATP and 80 nM of the GFP-labelled substrate eIF2alpha at room temperature.
The enzymatic reaction is stopped by addition of EDTA. The amount of phosphorylated eIF2alpha is determined by TR-FRET (Lanthascreen): A complex is formed consisting of antibody and GFP labelled phospho-eIF2a, which allows a FRET upon exitation at 340 nm.
The GCN2-activity is directly proportional to the ratio of fluorescence units at the emission wavelength 520 nm (phosphopeptide-sensitive wavelength=emission of GFP) to the units at 495 nm (reference wavelength=emission of Terbium-chelate).
Final Concentrations in the Enzymatic Reaction
On the technique in general: TR-FRET usually uses a lanthanide donor and a delayed reading to cut background.

In test [2] the target is SYK (Homo sapiens, UniProt P43405). The test can be described thus: SYK flash plate assay. The class given is biochemical. Particulars: class symbols; read-out: IC50 SYK (enzyme assay). Here is the method: The kinase assay is performed either as 384-well Flashplate assay (for e.g. Topcount measurement) or as 384-well Image-Flashplate assay (for LEADseeker measurement). • 2.5 nM SYK, 400 nM Biotin-Aha-Aha-KEDPDYEWPSAKK • and 10 μM ATP (spiked with 0.3 μCi 33P-ATP/well) are incubated in a total volume of 50 μl (60 mM Hepes, 10 mM MgCl2, 1.2 mM Dithiothreitol, 0.02% Brij35, 0.1% BSA, pH 7.5) with or without test compound for 1 hours at 30° C. The reaction is stopped with 25 μl 200 mM EDTA. After 30 Min at 30° C. the liquid is removed and each well washed thrice with 100 μl 0.9% sodium chloride solution. Non-specific reaction is determined in presence of 0.1 μM Staurosporine. Radioactivity is measured with Topcount (when using Flashplates) or with LEADseeker (when using Image-Flashplates) respectively. Results (e.g. IC50-values) are calculated with program tools provided by the IT-department (e.g. Symyx Assay Explorer, Genedata Screener). In vivo Assays CIA

Chain of GCN2 (Q9P2K8 whole entry, species assumed): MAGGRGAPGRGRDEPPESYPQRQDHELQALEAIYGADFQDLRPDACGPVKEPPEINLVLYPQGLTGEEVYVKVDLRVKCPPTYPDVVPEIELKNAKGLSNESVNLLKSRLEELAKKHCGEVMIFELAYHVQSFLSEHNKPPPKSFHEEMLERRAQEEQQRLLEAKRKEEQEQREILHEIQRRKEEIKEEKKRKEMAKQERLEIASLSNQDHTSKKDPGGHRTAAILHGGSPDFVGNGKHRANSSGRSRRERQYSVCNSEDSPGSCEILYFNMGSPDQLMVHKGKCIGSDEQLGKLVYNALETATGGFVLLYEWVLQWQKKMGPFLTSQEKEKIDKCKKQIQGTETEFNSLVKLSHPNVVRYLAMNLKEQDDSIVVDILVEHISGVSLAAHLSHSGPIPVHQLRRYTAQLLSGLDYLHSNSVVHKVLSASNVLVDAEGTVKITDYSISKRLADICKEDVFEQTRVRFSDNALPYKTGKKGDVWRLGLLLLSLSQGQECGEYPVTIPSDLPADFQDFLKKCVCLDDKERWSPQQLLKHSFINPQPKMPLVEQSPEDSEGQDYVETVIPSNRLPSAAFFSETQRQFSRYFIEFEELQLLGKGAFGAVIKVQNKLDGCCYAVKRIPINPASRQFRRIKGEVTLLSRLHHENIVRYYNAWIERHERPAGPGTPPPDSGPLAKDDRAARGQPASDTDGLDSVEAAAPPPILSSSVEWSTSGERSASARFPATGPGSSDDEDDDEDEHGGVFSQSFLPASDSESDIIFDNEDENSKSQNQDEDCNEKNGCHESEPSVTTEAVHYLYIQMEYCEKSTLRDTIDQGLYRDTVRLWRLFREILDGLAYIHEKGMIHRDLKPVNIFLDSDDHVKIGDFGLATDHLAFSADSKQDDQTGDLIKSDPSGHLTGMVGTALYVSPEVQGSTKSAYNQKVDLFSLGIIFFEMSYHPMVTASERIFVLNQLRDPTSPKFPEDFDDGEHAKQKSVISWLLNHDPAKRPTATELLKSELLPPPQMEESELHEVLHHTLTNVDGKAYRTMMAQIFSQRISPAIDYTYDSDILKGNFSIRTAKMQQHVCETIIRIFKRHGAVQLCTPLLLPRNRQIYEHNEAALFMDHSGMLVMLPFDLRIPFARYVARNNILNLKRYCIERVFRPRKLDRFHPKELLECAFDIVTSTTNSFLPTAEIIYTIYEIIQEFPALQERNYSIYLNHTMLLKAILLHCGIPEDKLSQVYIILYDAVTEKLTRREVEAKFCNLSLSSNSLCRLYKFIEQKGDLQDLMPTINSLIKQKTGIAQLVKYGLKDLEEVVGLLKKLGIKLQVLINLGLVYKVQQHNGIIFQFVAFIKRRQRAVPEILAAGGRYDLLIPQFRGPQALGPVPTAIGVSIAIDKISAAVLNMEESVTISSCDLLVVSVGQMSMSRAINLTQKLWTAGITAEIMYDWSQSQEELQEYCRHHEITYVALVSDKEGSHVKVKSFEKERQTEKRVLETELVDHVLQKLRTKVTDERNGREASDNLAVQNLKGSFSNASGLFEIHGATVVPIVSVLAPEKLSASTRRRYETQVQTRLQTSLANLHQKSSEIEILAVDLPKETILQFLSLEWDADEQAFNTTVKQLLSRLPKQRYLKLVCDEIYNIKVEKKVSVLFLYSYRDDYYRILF

Broadly, the IC50 is the concentration needed to halve the response being measured. For the molecule `COc1cc2ccc1OCCCNC(=O)C1(C)Oc3ccc(cc3NC1=O)Nc1nc(ncc1F)N2` (stereo not drawn) [Compound B11], the IC50 was 0.3 to 3 µM in test [1] and 3 to 50 µM in test [2].

As to `CC12Oc3ccc(cc3NC1=O)Nc1nc(ncc1F)Nc1ccc(cc1)OCCC(=O)NCCCNC2=O` (stereo not drawn) [Compound B15], the IC50 in test [2] lay in the range of 0.3 to 3 µM.

As for `COc1cc2ccc1OCCCCNC(=O)[C@@H](Cc1ccccc1)NC(=O)[C@]1(C)Oc3ccc(cc3NC1=O)Nc1nc(ncc1F)N2` [Compound B20], the 50% inhibitory concentration (IC50) in test [1] was 3 to 50 µM; in test [2], 0.3 to 3 µM.

As for `COc1cc2c3cc1Nc1ncc(F)c(n1)Nc1ccc4c(c1)NC(=O)C(C)(O4)C(=O)NCCN(C)CC(=O)N3CC2` (stereo not drawn) [Compound B7], the half-inhibitory concentration (IC50) in test [2] lay within 3 to 50 µM.

As for `COc1cc2ccc1OCCCCNC(=O)C1(C)Oc3ccc(cc3NC1=O)Nc1nc(ncc1F)N2` (stereo not drawn) [Compound B12], the half-inhibitory concentration (IC50) lay in the range of 0.3 to 3 µM in test [1] and 3 to 50 µM in test [2].

For `CC12Oc3ccc(cc3NC1=O)Nc1nc(ncc1F)Nc1cccc(c1)CCNC2=O` (stereo not drawn) [Compound 12], the IC50 in test [1] and in test [2] was 3 to 50 µM each time.

Regarding `COc1cc2cc(c1)NC(=O)CN(C)C(=O)C1(C)Oc3ccc(cc3NC1=O)Nc1nc(ncc1F)C2` (stereo not drawn) [Compound B2], the half-maximal inhibitory concentration (IC50) in test [2] was less than 0.3 µM.

Turning to `COc1cc2cc(c1)C(=O)NCCNC(=O)C1(C)Oc3ccc(cc3NC1=O)Nc1nc(ncc1F)N2` (stereo not drawn) [Compound B23], the IC50 in test [1] and in test [2] was 0.3 to 3 µM each time.

Turning to `CC12CCOC(=O)NCc3cccc(c3)Nc3ncc(F)c(n3)Nc3ccc(c(c3)NC1=O)O2` (stereo not drawn) [Compound 9], the IC50 in test [2] was less than 0.3 µM.

With `CC12Oc3ccc(cc3NC1=O)Nc1nc(ncc1F)Nc1ccc(cc1)OCCCC(=O)NCCCNC2=O` (stereo not drawn) [Compound B16], the half-inhibitory concentration (IC50) in test [2] was 0.3 to 3 µM.

For the molecule `CN1CC(=O)Nc2cccc(c2)Nc2ncc(F)c(n2)Nc2ccc3c(c2)NC(=O)[C@@](C)(O3)C1=O` (single isomer, unassigned) [Compound 16], the values for the half-maximal inhibitory concentration (IC50) in test [1] and in test [2] were 3 to 50 µM and 0.3 to 3 µM, respectively.

With `CN1CC(=O)Nc2cccc(c2)Nc2ncc(F)c(n2)Nc2ccc3c(c2)NC(=O)C(C)(O3)C1=O` (racemic) [Compound 15], the IC50 was 0.3 to 3 µM in test [1] and less than 0.3 µM in test [2].

Turning to `CC12CCOC(=O)Nc3cccc(c3)Nc3ncc(F)c(n3)Nc3ccc(c(c3)NC1=O)O2` (stereo not drawn) [Compound 6], the IC50 in test [2] was less than 0.3 µM.

Regarding `COc1cc2ccc1OCCNC(=O)[C@H](Cc1ccccc1)NC(=O)[C@]1(C)Oc3ccc(cc3NC1=O)Nc1nc(ncc1F)N2` [Compound B25], the IC50 in test [2] fell in the range of 0.3 to 3 µM.

Turning to `CC12Oc3ccc(cc3NC1=O)Nc1nc(ncc1F)Nc1cccc(c1)S(=O)(=O)NCCC(=O)NCCCNC2=O` (stereo not drawn) [Compound B18], the concentration for half-maximal inhibition (IC50) in test [1] lay in the range of 0.3 to 3 µM.

For `CN1CC(=O)N(C)c2cccc(c2)Nc2ncc(F)c(n2)Nc2ccc3c(c2)NC(=O)C(C)(O3)C1=O` (stereo not drawn) [Compound B1], the half-inhibitory concentration (IC50) in test [2] fell in the range of 3 to 50 µM.

For `COc1ccc2cc1Nc1ncc(F)c(n1)Nc1ccc3c(c1)NC(=O)C(C)(O3)C(=O)NCCNC2=O` (stereo not drawn) [Compound B19], in test [2], the IC50 lay in the range of 0.3 to 3 µM.

`CC12Oc3ccc(cc3NC1=O)Nc1nc(ncc1F)Nc1cccc(c1)NC(=O)N1CCC[C@H]1C(=O)NCCCNC2=O` (stereo partly drawn) [Compound B17]: the 50% inhibitory concentration (IC50) in test [2] was in the range of 3 to 50 µM.

For `CN1CC(=O)Nc2cccc(c2)Nc2ncc(F)c(n2)Nc2ccc3c(c2)NC(=O)[C@](C)(O3)C1=O` (single isomer, unassigned) [Compound 17], the IC50 was 0.3 to 3 µM in test [1] and less than 0.3 µM in test [2].

The record behind these values is patent publication US9073944B2, “Cyclic diaminopyrimidine derivatives” (Merck Patent GmbH, priority 2012, dated 2015).
